Patent US11813306B2, “Cyclic tetramer compounds as proprotein convertase subtilisin/kexin type 9 (PCSK9) inhibitors for the treatment of metabolic disorders” (NOVARTIS AG, priority 2018, dated 2023)

Target: human PCSK9 (Homo sapiens, UniProt Q8NBP7)
Assay: PCSK9 ligand binding assay (TR-FRET): interference with binding of human PCSK9 to human LDLR
Details: for IC50: Human PCSK9 Alexa Fluor 647 / Human LDLR extracellular domain-Europium Kryptate; for Max % inhibition: efficacy (Amax), 100% = 1 uM unlabeled human PCSK9, 0% = DMSO
Procedure, shortened: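 Read-out was TR-FRET ratio (665 nm over 615 nm, 330 nm excitation) between Alexa Fluor 647-human PCSK9 (16 nM added) and Europium Kryptate-human LDLR ectodomain (4 nM added). Compound and PCSK9 were mixed 30 min before LDLR, then incubated 2 h. Inhibition was normalised to DMSO and unlabelled-PCSK9 controls, giving IC50 and Amax.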

Chain of human PCSK9 (Q8NBP7 153-692): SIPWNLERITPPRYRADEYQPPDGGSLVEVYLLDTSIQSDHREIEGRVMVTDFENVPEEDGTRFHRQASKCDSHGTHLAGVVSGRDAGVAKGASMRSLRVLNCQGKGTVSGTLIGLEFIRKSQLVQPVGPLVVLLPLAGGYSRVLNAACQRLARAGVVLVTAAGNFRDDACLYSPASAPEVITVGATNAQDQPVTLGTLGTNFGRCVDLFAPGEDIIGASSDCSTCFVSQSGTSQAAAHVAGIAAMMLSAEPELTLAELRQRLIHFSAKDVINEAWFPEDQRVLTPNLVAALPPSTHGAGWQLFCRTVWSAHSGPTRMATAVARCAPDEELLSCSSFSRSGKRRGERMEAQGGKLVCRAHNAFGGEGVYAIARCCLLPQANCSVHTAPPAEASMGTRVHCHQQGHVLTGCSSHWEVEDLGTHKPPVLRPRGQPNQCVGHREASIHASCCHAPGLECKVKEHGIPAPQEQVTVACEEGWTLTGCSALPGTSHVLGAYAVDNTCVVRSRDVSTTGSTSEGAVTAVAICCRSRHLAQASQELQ
Chain of human PCSK9 (Q8NBP7 31-152 partner limits assumed): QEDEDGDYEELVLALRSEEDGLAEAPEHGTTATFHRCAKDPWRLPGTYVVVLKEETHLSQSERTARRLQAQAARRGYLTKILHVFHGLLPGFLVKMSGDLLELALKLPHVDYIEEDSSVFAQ

SMILES | IC50 | Max % inhibition
C[C@H]1C(=O)N[C@@H](CO)C(=O)N[C@@]2(Cc3ccc(Cl)cc3)CCCN(C2)C(=O)[C@H]([C@@H]2CCc3ccccc32)CC(=O)N1Cc1ccc(Cl)cc1Oc1ccc(-c2cnc(C3=CCN(C)C3)n2C)cc1.Cl [Compound 77, (3S,7S,10S,13R)-6-(4-chloro-2-(4-(1-methyl-2-(1-methyl-2,5-dihydro-1H-pyrrol-3-yl)-1H-imidazol-5-yl)phenoxy)benzyl)-13-(4-chlorobenzyl)-3-((S)-2,3-dihydro-1H-inden-1-yl)-10-(hydroxymethyl)-7-methyl-1,6,9,12-tetraazabicyclo[11.3.1]heptadecane-2,5,8,11-tetraone hydrochloride] | 0.979 nM | 71.9%
C[C@H]1C(=O)N[C@@H](CO)C(=O)N[C@@]2(Cc3ccc(Cl)cc3)CCCN(C2)C(=O)[C@H](Cc2cccc(C(F)(F)F)c2)CC(=O)N1Cc1c(F)cc(Cl)cc1Oc1ccc(-c2cnc(CN(C)C)n2C)cc1 [Compound 80, (3R, 7S, 10S, 13R)-6-(4-chloro-2-(4-(2-((dimethylamino)methyl)-1-methyl-1H-imidazol-5-yl)phenoxy)-6-fluorobenzyl)-13-(4-chlorobenzyl)-10-(hydroxymethyl)-7-methyl-3-(3-(trifluoromethyl)benzyl)-1,6,9,12-tetraazabicyclo[11.3.1]heptadecane-2,5,8,11-tetraone] | 0.624 nM | 106.6%
C[C@H]1C(=O)N[C@@H](CO)C(=O)N(C)[C@@]2(Cc3ccc(Cl)cc3)CCCN(C2)C(=O)[C@H](CC(F)(F)F)CC(=O)N1Cc1c(F)cc(Cl)cc1Oc1ccc(-c2cnc(CN(C)C)n2C)cc1 [Compound 82, (3S,7S,10S,13R)-6-(4-Chloro-2-(4-(2-((dimethylamino)methyl)-1-methyl-1H-imidazol-5-yl)phenoxy)-6-fluorobenzyl)-13-(4-chlorobenzyl)-10-(hydroxymethyl)-7,12-dimethyl-3-(2,2,2-trifluoroethyl)-1,6,9,12-tetraazabicyclo[11.3.1]heptadecane-2,5,8,11-tetraone] | 0.37 nM | 108.5%

Results, then the compound that gave them:

IC50 | Max % inhibition | SMILES
0.819 nM | 108.3% | C[C@H]1C(=O)N[C@@H](CO)C(=O)N(C)[C@@]2(Cc3ccc(Cl)cc3)CCCN(C2)C(=O)[C@H](Cc2ccccc2)CC(=O)N1Cc1c(F)cc(Cl)cc1Oc1ccc(-c2cnc(CN(C)C)n2C)cc1 [Compound 79, (3R, 7S, 10S, 13R)-3-benzyl-6-(4-chloro-2-(4-(2-((dimethylamino)methyl)-1-methyl-1H-imidazol-5-yl)phenoxy)-6-fluorobenzyl)-13-(4-chlorobenzyl)-10-(hydroxymethyl)-7,12-dimethyl-1,6,9,12-tetraazabicyclo[11.3.1]heptadecane-2,5,8,11-tetraone]
0.95 nM | 105.6% | C[C@H]1C[C@H]([C@@H]2CC(=O)N(Cc3ccc(Cl)cc3Oc3ccc(-c4cnc(CN(C)C)n4C)cc3)[C@@H](C)C(=O)N[C@@H](CO)C(=O)N(C)[C@H](Cc3ccc(Cl)cc3)CN(C)C2=O)c2ccccc21.Cl [Compound 81, (2S, 5S, 8R, 12S)-1-(4-chloro-2-(4-(2-((dimethylamino)methyl)-1-methyl-1H-imidazol-5-yl)phenoxy)benzyl)-8-(4-chlorobenzyl)-5-(hydroxymethyl)-2,7,10-trimethyl-12-((1R,3S)-3-methyl-2,3-dihydro-1H-inden-1-yl)-1,4,7,10-tetraazacyclotetradecane-3,6,11,14-tetraone]
0.347 nM | 112.4% | C[C@H]1C(=O)N[C@@H](CO)C(=O)N[C@@]2(Cc3ccc(Cl)cc3)CCCN(C2)C(=O)[C@H](CC(F)(F)F)CC(=O)N1Cc1ccc(Cl)cc1Oc1ccc(-c2cnc(CN(C)C)n2C)cc1 [Compound 83, (3S,7S,10S,13R)-6-(4-Chloro-2-(4-(2-((dimethylamino)methyl)-1-methyl-1H-imidazol-5-yl)phenoxy)benzyl)-13-(4-chlorobenzyl)-10-(hydroxymethyl)-7-methyl-3-(2,2,2-trifluoroethyl)-1,6,9,12-tetraazabicyclo[11.3.1]heptadecane-2,5,8,11-tetraone]
